Our source for the IC50 values is patent US8933103B2, “Pyridone derivatives” (Daiichi Sankyo Company, Limited, priority 2012, dated 2015).

Each structure is given as a SMILES string.

What is called IC50 is the point on the concentration scale where inhibition reaches its midpoint. Read a high IC50 as lower potency.

Assay [1] addresses T1, phosphorylated Axl (pAxl Y702) in NCI-H1299 cells (Homo sapiens, UniProt P30530).
T1 construct: endogenous in cells; host or cells: NCI-H1299
T1 sequence (P30530 26-894): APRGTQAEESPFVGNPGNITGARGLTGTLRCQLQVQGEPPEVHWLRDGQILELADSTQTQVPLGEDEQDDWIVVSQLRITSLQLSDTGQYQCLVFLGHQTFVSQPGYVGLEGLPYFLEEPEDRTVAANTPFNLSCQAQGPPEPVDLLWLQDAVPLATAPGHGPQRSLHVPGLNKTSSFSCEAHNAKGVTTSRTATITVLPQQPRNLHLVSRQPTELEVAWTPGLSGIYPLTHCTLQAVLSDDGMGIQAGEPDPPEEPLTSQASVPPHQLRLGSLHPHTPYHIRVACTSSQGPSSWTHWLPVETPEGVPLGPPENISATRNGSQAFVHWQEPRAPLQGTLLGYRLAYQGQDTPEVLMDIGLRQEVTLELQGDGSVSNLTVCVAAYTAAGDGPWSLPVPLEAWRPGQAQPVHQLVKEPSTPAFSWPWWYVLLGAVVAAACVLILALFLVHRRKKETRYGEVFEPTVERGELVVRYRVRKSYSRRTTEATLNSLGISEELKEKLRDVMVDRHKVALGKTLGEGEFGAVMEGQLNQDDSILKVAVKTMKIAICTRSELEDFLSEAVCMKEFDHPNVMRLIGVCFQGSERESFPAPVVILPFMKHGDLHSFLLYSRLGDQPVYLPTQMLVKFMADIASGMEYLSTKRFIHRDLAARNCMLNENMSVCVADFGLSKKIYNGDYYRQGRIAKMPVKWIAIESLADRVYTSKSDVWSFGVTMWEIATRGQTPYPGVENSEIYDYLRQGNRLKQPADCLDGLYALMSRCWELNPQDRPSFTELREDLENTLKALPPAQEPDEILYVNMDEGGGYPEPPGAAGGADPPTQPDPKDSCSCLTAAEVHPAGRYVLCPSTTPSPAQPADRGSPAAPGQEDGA
The assay can be described thus: Intracellular Axl Phosphorylation Inhibitory Activity (pAxl, NCI-H1299 cells). In kind it is cell-based. Conditions: 1 h compound incubation, GAS6 stimulation 10 minutes, pAxl (Y702) level. The protocol: A phosphorylated Axl (hereinafter pAxl) inhibitory test was performed using the human non-small-cell lung cancer-derived cell strain NCI-H1299.
On the following day, the medium was removed, 100 μl of fresh medium were added, and the cells were cultured at 37° C. in the presence of 5% CO2 for one day.
The test compound was dissolved in DMSO and diluted with medium to prepare a sample solution (DMSO concentration: 2%). Twenty-five microliters of medium or sample-added medium was added to each well (DMSO concentration: 0.4%), and the plate was incubated at 37° C. in the presence of 5% CO2 for one hour.
After stirring, the plate was incubated at 37° C. in the presence of 5% CO2 for 10 minutes.
The supernatant was discarded, and 0.1 ml of a 37% formalin solution diluted to 4% with phosphate buffer (PBS) (hereinafter “4% formalin solution”) was added to each well. The plate was allowed to stand at room temperature for 10 minutes.
Next, the 4% formalin solution was discarded, and 0.2 ml of a solution of Triton X-100 diluted to 0.1% with PBS (hereinafter “wash buffer”) was added. The wash buffer was discarded using a decanter, and excess moisture in the plate was removed on a paper towel.
Subsequently, […] NaN3 and H2O2 were added to the wash buffer at 0.1% (hereinafter “quenching buffer”), and 0.1 ml of the quenching buffer was added to each well. The plate was allowed to stand at room temperature for 15 minutes.
The quenching buffer was discarded, and 0.2 ml of wash buffer was added. The wash buffer was discarded using a decanter, and excess moisture in the plate was removed on a paper towel.
Skim milk (Nacalai Tesque) was added to the wash buffer at a final concentration of 5% (hereinafter “blocking buffer”), and 0.25 ml of the blocking buffer was added to each well. The plate was allowed to stand at room temperature for one hour.
After light stirring, the plate was incubated for 20 minutes. Luminescence was then measured by ARVO sx (PerkinElmer), and the pAxl (Y702) level was measured.
pAxl Inhibitory activity was determined by the following formula. Inhibition %=100−(A−B)×100/(T−B)
A: Measurement of the test compound
T: Luminescence value of the reaction solution with a compound not added

For assay [2], the target named is T2, AXL (fusion protein of amino acids 464-885 of the intracellular domain of human AXL with glutathione transferase) (Homo sapiens, UniProt P30530).
T2 sequence (P30530 464-885 isoform P30530-2): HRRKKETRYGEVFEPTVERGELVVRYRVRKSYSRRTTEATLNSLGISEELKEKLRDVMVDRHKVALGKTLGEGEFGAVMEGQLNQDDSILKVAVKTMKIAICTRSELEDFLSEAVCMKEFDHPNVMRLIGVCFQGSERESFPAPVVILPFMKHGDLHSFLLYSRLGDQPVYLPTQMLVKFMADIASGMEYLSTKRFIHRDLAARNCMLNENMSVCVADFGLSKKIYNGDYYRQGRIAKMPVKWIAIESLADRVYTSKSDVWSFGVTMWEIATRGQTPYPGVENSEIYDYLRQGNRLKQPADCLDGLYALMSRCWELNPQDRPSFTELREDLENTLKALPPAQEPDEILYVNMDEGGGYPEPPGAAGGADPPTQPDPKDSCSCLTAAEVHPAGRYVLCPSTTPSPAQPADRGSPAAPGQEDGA
The assay can be described thus: Cell-Free Axl Kinase Inhibitory Activity.

As for `COc1ccc(-c2cnc(N)c(-c3ccc(NC(=O)c4cn(CCOC5CCCCO5)cc(-c5ccc(F)cc5)c4=O)cc3)c2)cc1OC` (racemic) [Example 6, N-{4-[2-Amino-5-(3,4-dimethoxyphenyl)pyridin-3-yl]phenyl}-5-(4-fluorophenyl)-4-oxo-1-[2-(tetrahydro-2H-pyran-2-yloxy)ethyl]-1,4-dihydropyridine-3-carboxamide], the IC50 in assay [1] lay within 100 to 500 nM; in assay [2], 1 to 10 nM.
The like results for `COc1ccc(-c2cnc(N)c(-c3ccc(NC(=O)c4c[nH]cc(-c5ccc(F)cc5)c4=O)cc3)c2)cc1OC` [Example 1, N-{4-[2-Amino-5-(3,4-dimethoxyphenyl)pyridin-3-yl]phenyl}-5-(4-fluorophenyl)-4-oxo-1,4-dihydropyridine-3-carboxamide] were, in that order, 50 to 100 nM and 1 to 10 nM.
For `COc1ccc(-c2cnc(N)c(-c3ccc(NC(=O)c4cn(CCO)cc(-c5ccc(F)cc5)c4=O)cc3)c2)cc1OC` [Example 7, N-{4-[2-Amino-5-(3,4-dimethoxyphenyl)pyridin-3-yl]phenyl}-5-(4-fluorophenyl)-1-(2-hydroxyethyl)-4-oxo-1,4-dihydropyridine-3-carboxamide], in that order: 50 to 100 nM and 1 to 10 nM.
The like results for `COc1ccc(-c2cnc(N)c(-c3ccc(NC(=O)c4cn(C[C@H]5COCCO5)cc(-c5ccc(F)cc5)c4=O)cc3)c2)cc1OC` [Example 14, N-{4-[2-Amino-5-(3,4-dimethoxyphenyl)pyridin-3-yl]phenyl}-1-[(2S)-1,4-dioxan-2-ylmethyl]-5-(4-fluorophenyl)-4-oxo-1,4-dihydropyridine-3-carboxamide] were, in that order, 50 to 100 nM and 1 to 10 nM.
Consider `CCn1cc(C(=O)Nc2ccc(-c3cc(-c4ccc(OC)c(OC)c4)cnc3N)cc2)c(=O)c(-c2ccccc2)c1` [Example 18, N-{4-[2-Amino-5-(3,4-dimethoxyphenyl)pyridin-3-yl]phenyl}-1-ethyl-4-oxo-5-phenyl-1,4-dihydropyridine-3-carboxamide], for which the half-maximal inhibitory concentration (IC50) in assay [1] was in the range of 50 to 100 nM; in assay [2], 1 to 10 nM.
For `COc1ccc(-c2cnc(N)c(-c3ccc(NC(=O)c4cn(CC(F)(F)F)cc(-c5cccc(F)c5)c4=O)cc3)c2)cc1OC` [Example 22, N-{4-[2-Amino-5-(3,4-dimethoxyphenyl)pyridin-3-yl]phenyl}-5-(3-fluorophenyl)-4-oxo-1-(2,2,2-trifluoroethyl)-1,4-dihydropyridine-3-carboxamide], in that order: 50 to 100 nM and 1 to 10 nM.
The like results for `COc1ccc(-c2cnc(N)c(-c3ccc(NC(=O)c4cn(CC(F)(F)F)cc(-c5ccc(F)cc5)c4=O)cc3C)c2)cc1OC` [Example 30, N-{4-[2-Amino-5-(3,4-dimethoxyphenyl)pyridin-3-yl]-3-methylphenyl}-5-(4-fluorophenyl)-4-oxo-1-(2,2,2-trifluoroethyl)-1,4-dihydropyridine-3-carboxamide] were, in that order, 50 to 100 nM and 1 to 10 nM.
For `Nc1ncc(-c2ccccc2)cc1-c1ccc(NC(=O)c2cn(CC(F)(F)F)cc(-c3ccc(F)cc3)c2=O)cc1` [Example 31, N-[4-(2-Amino-5-phenylpyridin-3-yl)phenyl]-5-(4-fluorophenyl)-4-oxo-1-(2,2,2-trifluoroethyl)-1,4-dihydropyridine-3-carboxamide], the IC50 was in the range of 100 to 500 nM in assay [1] and 1 to 10 nM in assay [2].
The like results for `COc1ccc(-c2cnc(N)c(-c3ccc(NC(=O)c4cn(CC(F)(F)F)cc(-c5ccc(F)cc5)c4=O)cc3)c2)cc1` [Example 32, N-{4-[2-Amino-5-(4-methoxyphenyl)pyridin-3-yl]phenyl}-5-(4-fluorophenyl)-4-oxo-1-(2,2,2-trifluoroethyl)-1,4-dihydropyridine-3-carboxamide] were, in that order, 100 to 500 nM and 10 to 20 nM.
In assay [2], `CC(=O)N1CC=C(c2cnc(N)c(-c3ccc(NC(=O)c4cn(CC(F)(F)F)cc(-c5ccc(F)cc5)c4=O)cc3)c2)CC1` [Example 80, N-[4-(1′-Acetyl-6-amino-1′,2′,3′,6′-tetrahydro-3,4′-bipyridin-5-yl)phenyl]-5-(4-fluorophenyl)-4-oxo-1-(2,2,2-trifluoroethyl)-1,4-dihydropyridine-3-carboxamide] returned an IC50 of 0.1 to 1 nM.
In turn, `COc1ccnc(N)c1-c1ccc(NC(=O)c2cn(CC(F)(F)F)cc(-c3ccc(F)cc3)c2=O)cc1` [Example 82, N-[4-(2-Amino-4-methoxypyridin-3-yl)phenyl]-5-(4-fluorophenyl)-4-oxo-1-(2,2,2-trifluoroethyl)-1,4-dihydropyridine-3-carboxamide] showed a half-maximal inhibitory concentration (IC50) in assay [2] of 1 to 10 nM.
The same measure, in the same setting: the figure for `COc1ccnc(N)c1-c1ccc(NC(=O)c2cn(CCF)cc(-c3ccc(F)cc3)c2=O)cc1` [Example 83, N-[4-(2-Amino-4-methoxypyridin-3-yl)phenyl]-1-(2-fluoroethyl)-5-(4-fluorophenyl)-4-oxo-1,4-dihydropyridine-3-carboxamide] is 10 to 20 nM; for `COc1ccnc(N)c1-c1ccc(NC(=O)c2cn(CC(F)(F)F)cc(-c3ccc(F)cc3)c2=O)cc1F` [Example 85, N-[4-(2-Amino-4-methoxypyridin-3-yl)-3-fluorophenyl]-5-(4-fluorophenyl)-4-oxo-1-(2,2,2-trifluoroethyl)-1,4-dihydropyridine-3-carboxamide] it is 0.1 to 1 nM; for `COc1ncnc(N)c1-c1ccc(NC(=O)c2cn(CC(F)(F)F)cc(-c3ccc(F)cc3)c2=O)cc1` [Example 86, N-[4-(4-Amino-6-methoxypyrimidin-5-yl)phenyl]-5-(4-fluorophenyl)-4-oxo-1-(2,2,2-trifluoroethyl)-1,4-dihydropyridine-3-carboxamide] it is 1 to 10 nM.
`COc1ccc(-c2cnc(N)c(-c3ccc(NC(=O)c4cn(CC(F)(F)F)cc(-c5ccc(F)cc5)c4=O)cn3)c2)cc1OC` [Example 87, N-[2′-Amino-5′-(3,4-dimethoxyphenyl)-2,3′-bipyridin-5-yl]-5-(4-fluorophenyl)-4-oxo-1-(2,2,2-trifluoroethyl)-1,4-dihydropyridine-3-carboxamide] gave an IC50 in assay [2] of 1 to 10 nM.
The same measure, in the same setting: next, `COc1ccc(-c2cnc(N)c(-c3ccc(NC(=O)c4cn(CC(F)(F)F)cc(-c5ccc(F)cc5)c4=O)cc3)c2)cc1O` [Example 88, N-{4-[2-Amino-5-(3-hydroxy-4-methoxyphenyl)pyridin-3-yl]phenyl}-5-(4-fluorophenyl)-4-oxo-1-(2,2,2-trifluoroethyl)-1,4-dihydropyridine-3-carboxamide]: 1 to 10 nM.
